Read-outs that look alike come from different tables or passages of the source.
Assays:
SARS-CoV-2 = test: microbe, parasite or virus in culture; format: cell-based; conditions: Severe acute respiratory syndrome coronavirus 2, 293T/ACE2, FIG. 12; for IC50: read-out: antiviral IC50; for IC90: read-out: antiviral IC90
MCF-7 cells = test: MTT cell proliferation assay, MCF-7; format: cell-based, human; conditions: MCF7
Method: FIG. 8. Effects of HCB on the proliferation of MCF-7 cells. MCF-7 cells were seeded in 96 well plates and treated with drugs at varied concentration for 24 hours. MTT assay was performed to determine remaining viable cells in each well. Results are represented as mean±S.D. (n=7). IC50 was determined by curve fitting.
(§1) 3-(4,5-Dimethylthiazol-2-yl)-2,5-diphenyltetrazolium Bromide (MTT) Cell Proliferation Assay. To cells grown in 96-well-tissue culture plate, 20 μl/well of MTT solution (5 mg/ml in PBS) was added. After 1-2 hours incubation at 37° C., the plate was centrifuged. Supernatant was discarded and 100 μl DMSO was added to dissolve water insoluble formazan, and the absorbance was read at 540 nm with a plate reader.

[1] = Microsomal stability, mouse liver microsomes; format: in vitro ADME; conditions: 10 μM, mouse liver microsomes 1 mg/mL, NADPH 2 mM, 37° C.
Method: (§2) Microsomal stability of HBB and HCB were evaluated in human and mouse liver microsomes. 10 μM of HBB or HCB was tested in a biological matrix comprising of human or mouse liver microsomes (1 mg/mL) (Table 6). NADPH (2mM) was added as a cofactor. Total volume was 200 μL.
(§3) HBB or HCB was incubated for 0, 30, or 60 min at 37° C. Incubations were quenched with 2 volumes of acetonitrile followed by centrifugation for 10 min at 16,000 g.

mm006 = test: Inhibition of mammary carcinoma cell line mm006; format: cell-based, mouse (C57BL/6); conditions: Mus musculus, read-out: IC50 (uM), mm006
Method: as §1

LR/FR MCF7A1C cells = test: Crystal violet cell proliferation assay, LR,FR-MCF7AC1; format: cell-based, human; conditions: for IC50: Homo sapiens, read-out: IC50, LR/FR MCF7A1C cells
Method: Derivation process of LR-FR- and LR-FR-PR resistant MCF7AC1 cells. The letrozole-resistant MCF7AC1 cell line (LR-MCF7AC1) was generated in vivo from the aromatase-expressing MCF7A C1 tumor-bearing athymic female nude mice that received letrozole therapy (10 μg/day, five days a week) over a period of 27 weeks. To facilitate tumor growth mice also received the estrogen precursor androstenedione (100 μg/day, five days a week), which is intratumorally converted by aromatase into estradiol (Yue W, et al. Cancer Res. 1994; 54(19):5092-5). With the emergence of the letrozole resistant tumors, these tumors were harvested from in vivo and the LR-MCF7AC1 cell line was established in vitro (Jayaraman S., et al. Breast Cancer Res. 2020; 22(1):51), where the cells grew in phenol-red free IMEM+10% FBS media containing antibiotics.
In a second in vivo study, the LR-MCF7AC1 tumor-bearing athymic female nude mice were randomized to multiple endocrine therapies including fulvestrant therapy (1000 μg/day, five days a week). One mouse harboring the LR-MCF7AC1 tumor began to develop resistance to fulvestrant therapy at 31 weeks of treatment. This fulvestrant-resistant LR-MCF7AC1 tumor was harvested from mice and reimplanted into mice for two successive generations. The 2nd generation tumor was harvested from in vivo and the LR,FR-MCF7AC1 cell line was established in vitro, where the cells grew in phenol-red free IMEM+10% FBS media containing antibiotics.
Cell proliferation assay: The cells mentioned in this study were seeded in 96 wells-plates (2000-4000 cells/well) and treated 24 hours later with DMSO (vehicle control), HCB or HBB drugs at the indicated concentrations. 72 hours later, the cells were fixed in situ with 25% (v/v) glutaraldehyde, followed by staining with 0.52% crystal violet (CV) in 25% methanol (Fisher Chemical). The CV stained plates were solubilized in 100 mM sodium citrate in 50% ethanol solution and absorbance of the stain measured at 550 nm using a plate reader. Each data point represents mean±SD, obtained from six wells per treatment performed in biological triplicates. […]

in vitro = conditions: African green monkey, Vero E6 cells
MCF10A cells = test: Crystal violet cell proliferation assay, MCF10A; format: cell-based; conditions: Homo sapiens, MCF-10A, 72 hours
Method: Cell proliferation assay: The cells mentioned in this study were seeded in 96 wells-plates (2000-4000 cells/well) and treated 24 hours later with DMSO (vehicle control), HCB or HBB drugs at the indicated concentrations. 72 hours later, the cells were fixed in situ with 25% (v/v) glutaraldehyde, followed by staining with 0.52% crystal violet (CV) in 25% methanol (Fisher Chemical). The CV stained plates were solubilized in 100 mM sodium citrate in 50% ethanol solution and absorbance of the stain measured at 550 nm using a plate reader. Each data point represents mean±SD, obtained from six wells per treatment performed in biological triplicates. All reagents were from Sigma-Aldrich unless otherwise stated.

mm001 = test: Inhibition of mammary carcinoma cell line mm001; format: cell-based, mouse (C57BL/6); conditions: Mus musculus, read-out: IC50 (uM), mm001
Method: as §1

[2] = Cytotoxicity assay in 293T/ACE2 cells; conditions: human, HEK293T/17 cells expressing human ACE2
[3] = system: 293T human embryonic kidney cells over-expressing the ACE2 receptor; test: Cytotoxicity assay in 293T/ACE2 cells; conditions: 293T/ACE2 cytotoxicity
LR/FR/PR MCF7A1C cells = test: Crystal violet cell proliferation assay, LR,FR,PR-MCF7AC1; format: cell-based; conditions: Homo sapiens, read-out: IC50, LR/FR/PR MCF7A1C cells
Method: Cell proliferation assay: The cells mentioned in this study were seeded in 96 wells-plates (2000-4000 cells/well) and treated 24 hours later with DMSO (vehicle control), HCB or HBB drugs at the indicated concentrations. […] The CV stained plates were solubilized in 100 mM sodium citrate in 50% ethanol solution and absorbance of the stain measured at 550 nm using a plate reader. Each data point represents mean±SD, obtained from six wells per treatment performed in biological triplicates.

MDA-MB-231 = test: Inhibition of mammary carcinoma cell line MDA-MB-231; format: cell-based; conditions: Table 5; MDA-MB-231, human, Basal, HER2−
Method: as §1

[4] = Microsomal stability, human liver microsomes; format: in vitro ADME; conditions: for parent metabolite peak area after 60 min: 10 μM, human liver microsomes 1 mg/mL, NADPH 2 mM, 37° C.; for degradation pathways: human or mouse liver microsomes
Method: as §2, §3

BT474 = test: Inhibition of mammary carcinoma cell line BT474; format: cell-based; conditions: BT-474; Table 5; BT474, human, ERα+, HER2+
Method: as §1

[5] = Table 5, MCF-7, human, ERα+, HER2−, read-out: IC50 (uM), MCF-7

Compound | IC50 (SARS-CoV-2) [µM] | IC90 (SARS-CoV-2) [µM] | IC50 (MCF-7 cells; [5]) [µM] | parent metabolite peak area after 60 min [1] [%] | CC50 at 48 h (in vitro) [µM] | IC50 (MCF10A cells) [µM] | CC50 [2] [µM] | CC10 [3] [µM] | IC50 (MDA-MB-231) [µM] | parent metabolite peak area after 60 min [4] [%] | degradation pathways [4] | IC50 (BT474) [µM] | further results
CCCCCCNC(=N)NC(=N)NCc1ccccc1 [HBB, N1-hexyl-N5-benzyl-biguanide] | 0.82 | 11.3 | 22.2 | 8.95 | > 20 | 5.2 | 26 | 1.5 | 18.5 | 19.19 | oxidation, dehydrogenation, and glucuronidation | 23.2 | IC50 (mm006): 38.5 µM; IC50 (LR/FR MCF7A1C cells; 72 h): 3.9 µM; IC50 (mm001): 26.8 µM; IC50 (LR/FR/PR MCF7A1C cells; 72 h): 4.9 µM
CCCCCCNC(=N)NC(=N)NCC12C3C4C5C3C1C5C42 (stereo not shown) [HCB, Hexyl Cubanomethyl Biguanide] | 0.7 | 4.8 | 8.4 | 18.63 | 13.3 | 2.5 | 7.2 | 1.04 | 15.4 | 48.18 | oxidation, dehydrogenation, and hydrogenation | 10.9 | IC50 (MCF-7 cells; Homo sapiens, MTT, 24 hours treatment, curve fitting, read-out: IC50, proliferation of MCF-7 cells): 8.4 ± 1.2 µM; IC50 (mm006; Table 5, mm006, C57BL/6, Basal): 16.9 µM; IC50 (LR/FR MCF7A1C cells; letrozole- and fulvestrant-resistant, 72 hours, crystal violet): 1.3 µM; fold increase in sensitivity, HCB vs HBB (LR/FR MCF7A1C cells; LR/FR and LR/FR/PR MCF7A1C cells): ~3 fold; IC50 (mm001; Table 5, mm001, C57BL/6, Basal): 12.1 µM; IC50 (LR/FR/PR MCF7A1C cells; letrozole-, fulvestrant- and palbociclib-resistant, 72 hours, crystal violet): 1.7 µM
